Laboratory results reported in patent US20030207933A1, “Compositions and methods for increasing the sensitivity of apoptosis-resistant tumor cells to inducers of apoptosis” (priority 2002, published 2003).

Experiments:
HL-60 Bcl-2 cells = assay: DNA fragmentation (release of 3H-labeled DNA fragments) in Bcl-2-transfected HL-60 cells; assay type: cell-based, human
RIF-1 fibrosarcoma = RIF-1 fibrosarcoma tumor growth in vivo; parameters: species or system mice
Excerpt: The present study tested in the ability of W-188 to synergize with Dox and inhibit tumor growth in vivo. The RIF-1 fibrosarcoma model was used because this model has been well-characterized, and naturally expresses high Bcl-2 levels and has a consistent growth pattern (Nahabedian, M. Y., et al., J. Natl. Can. Inst., 1988, 80:739; Chang, M-J., et al., Cancer Res., 1994, 54:5380; Srivastana, M., et al., J. Biol. Chem., 2001, 276:15481).
Groups of five mice each were inoculated s.c. with RIF-1 cells. The tumors were allowed to grow for 12 days to a size of 0.5 cm diameter, which was designated day 0. The mice were then given five i.p. injections every other day with vehicle, Dox 2.5 mg/kg, Dox 5.0 mg/kg, W-188 100 mg/kg, and Dox 5.0 mg/kg+W-188 100 mg/kg. The mice were weighed and the tumor size measured every day.
The protocol was similar to that described for the W-188 experiment in Example 8, except that in this study, mice with established tumors received only three injections of W-143 or Dox every other day starting on day 0.

[1] = Body weight of RIF-1 tumor bearing mice; details: Dox 5 mg/kg alone; FIG. 15
Excerpt: Groups of five mice each were inoculated s.c. with RIF-1 cells. The tumors were allowed to grow for 12 days to a size of 0.5 cm diameter, which was designated day 0. […] The mice were weighed and the tumor size measured every day.

mice = assay: Multiple dose toxicity with histopathological analysis; assay type: in vivo; details: doxorubicin 5 mg/kg alone
Experimental: In the present study, more extensive toxicity studies with histopathological analysis of seven different tissues was performed on W-143 at a commercial lab.
Groups of six mice (3 male and 3 females) each were given three i.p. injections at two day intervals of vehicle, doxorubicin 5 mg/kg alone, W-143 200 mg/kg alone or both together. On day 5 and day 15 after the last injection, mice were sacrificed, necropsied, and tissue samples processed. Tissues examined include bone marrow, liver, heart, small and large intestine, 1 sex organ, and kidney.

Bcl-2 = assay: Western blot for expression of Bcl-2 in RIF-1 tumors in vivo; parameters: species or system mice; details: Dox alone; day 15; FIG. 16
Excerpt: Cells were dissociated, lysed, and the nuclei and mitochondria separated by differential centrifugation. RIF-1 cells cultured in vitro were processed in a similar manner as a positive control. Equal amounts of protein extracts were separated by electrophoresis and analyzed by Western blot for expression of Bcl-2. […] The pattern of Bcl-2 expression was similar in the nuclei, although the overall levels were lower than in the mitochondria. […] Most likely, this discrepancy can be explained by the fact that this line is transfected with exogenous Bcl-2, whereas the RIF-1 line expresses endogenous Bcl-2 under control of its natural promoter. […] Alternatively, W-188 and W-143 may differ in their mechanisms of action, although this conclusion seems less likely in view of the structural similarity of these two compounds.

HL-60 neo cells = assay: DNA fragmentation (release of 3H-labeled DNA fragments) in vector control HL-60 neo cells; assay type: cell-based, human
Experimental: The present study evaluated the ability of W-188 to sensitize Bcl-2-overexpressing cells to induce apoptosis. The human myelogenous leukemia, HL-60, and the human B cell leukemia, PW, normally express very low levels of Bcl-2. As a model system, W-188 and various analogs and derivatives were tested in normal HL-60 and PW cells and in Bcl-2-transfected HL-60 and PW cells that overexpress high levels of Bcl-2 (see Gilbert et al., J. Cell Physiol., 1996, 171:299).
As depicted in FIG. 4, HL-60 cells (Panel A) and PW cells (Panel B) cells were exposed to various apoptosis inducers: TNF at 5 ng/ml; etoposide at 20 μM; and UV at 0.08 J/cm^2. The release of 3H-labeled DNA fragments was measured after 5 h. Normal HL-60 and PW cells were equally sensitive to apoptosis inducers as compared with cells that were transfected with vector encoding neomycin resistance (HL-60 neo and PW neo) only. […] W-188 alone was nontoxic. The addition of W-188 to the neo cell lines caused a 1.5-2 fold increase in DNA fragmentation in response to the various apoptosis inducers.

AP24 = assay: Etoposide-induced activation of AP24 (AAPVase) in HL-60 and PW leukemia lines; assay type: cell-based, human; details: etoposide 50 μM, 3 h
[2] = Cytotoxicity to normal venous endothelial cells (MTT dye reduction assay); assay type: cell-based, human; details: human, normal venous endothelial cells, etoposide 100 μM, W-188 0 μg/mL; 6 h
overexpression of Bcl-2 = assay: Comparison with compounds reported to counteract Bcl-2; assay type: cell-based; details: data not shown
Excerpt: W-188 was then compared to other compounds previously reported to counteract Bcl-2 (Marchetti, P., et al., J. Immunol., 1996, 157:4830; Hirsch, T., et al., Exp. Cell Res., 1998, 241:426).

[3] = Exp 1, etoposide 5 μM + compound 10 μM
[4] = Exp 4, etoposide 5 μM + compound 10 μM
[5] = Exp 3, etoposide 5 μM + compound 20 μM
[6] = Exp 2, etoposide 10 μM + compound 10 μM

Cl.Cl.Cl.Cl.O.O=C(O)CN1CCCN(CC(=O)O)CCN(CC(=O)O)CCCN(CC(=O)O)CC1 [1,4,8,11-tetraazacyclotetra-decane-1,4,8,11-tetraacetic acid tetrahydrochioride hydrate]
% DNA Fragmentation (HL-60 Bcl-2 cells; [3]): 0%

Cc1nc(-c2nc(C)c(C)[nH]2)[nH]c1C [2,2′-bis(4,5-dimethyl-imidazole)]
% DNA Fragmentation (HL-60 Bcl-2 cells; [3]): 2%

CC(C)(C)c1ccc2c(c1)-c1nc3nc(nc4[nH]c(nc5[nH]c(nc-2n1)c1cc(C(C)(C)C)ccc51)c1cc(C(C)(C)C)ccc41)-c1ccc(C(C)(C)C)cc1-3 [2,9,16,23-tetra-tert-butyl-29H, 31H-phthalocyanine]
% DNA Fragmentation (HL-60 Bcl-2 cells; [4]): 0%

N#Cc1nc[nH]c1C#N [4,5-dicyanoimidazole]
% DNA Fragmentation (HL-60 Bcl-2 cells; [3]): 10%

CC1(C)CC(C#N)CC(C)(C)N1[O] [4-cyano tempo]
% DNA Fragmentation (HL-60 Bcl-2 cells; [3]): 2%

Cc1ccc(-c2c3nc(c(-c4ccc(C)cc4)c4ccc([nH]4)c(-c4ccc(C)cc4)c4nc(c(-c5ccc(C)cc5)c5ccc2[nH]5)C=C4)C=C3)cc1 [5,10,15,20-tetra-p-tolyl-21H,23H-porphine]
% DNA Fragmentation (HL-60 Bcl-2 cells; [4]): 15%

COc1cccc2c1C(=O)c1c(O)c3c(c(O)c1C2=O)C[C@@](O)(C(=O)CO)C[C@@H]3O[C@H]1C[C@H](N)[C@H](O)[C@H](C)O1 [Dox, doxorubicin, reference compound]
Effect on tumor growth (RIF-1 fibrosarcoma; Dox 5 mg/kg alone, three injections every other day, FIG. 14): only a small effect on tumor growth
Effect on tumor growth (RIF-1 fibrosarcoma; Dox alone at 2.5 or 5 mg/kg, five i.p. injections every other day, FIG. 11): very little effect on tumor growth
Body weight [1]: toxic causing a significant weight loss on day 7-8
Histopathology (mice; three i.p. injections, day 5): minor vacuolar changes in the liver
Histopathology (mice; day 15): all tissues were normal
Bcl-2 expression in tumor cell mitochondria (Bcl-2): expressed high levels of Bcl-2

COc1cc([C@@H]2c3cc4c(cc3[C@@H](O[C@@H]3O[C@@H]5CO[C@@H](C)O[C@H]5[C@H](O)[C@H]3O)[C@H]3COC(=O)[C@H]23)OCO4)cc(OC)c1O [Etoposide]
% DNA Fragmentation (HL-60 neo cells; Exp 1, etoposide 5 μM alone): 72%
% DNA Fragmentation (HL-60 neo cells; Exp 2, etoposide 10 μM alone): 57%
% DNA Fragmentation (HL-60 neo cells; Exp 3, etoposide 5 μM alone): 97%
% DNA Fragmentation (HL-60 neo cells; Exp 4, etoposide 5 μM alone): 63%
% DNA Fragmentation (HL-60 neo cells; Exp 5, etoposide 10 μM alone): 57%
% DNA Fragmentation (HL-60 Bcl-2 cells; Exp 1, etoposide 5 μM alone): 0%
% DNA Fragmentation (HL-60 Bcl-2 cells; Exp 2, etoposide 10 μM alone): 0%
% DNA Fragmentation (HL-60 Bcl-2 cells; Exp 3, etoposide 5 μM alone): 24%
% DNA Fragmentation (HL-60 Bcl-2 cells; Exp 4, etoposide 5 μM alone): 3%
% DNA Fragmentation (HL-60 Bcl-2 cells; Exp 5, etoposide 10 μM alone): 0%
AP24 Activity (AAPVase, nmol/mg/hr) (AP24; HL-60 Bcl-2): 14 nmol/mg/h
AP24 Activity (AAPVase, nmol/mg/hr) (AP24; HL-60 neo): 100 nmol/mg/h
AP24 Activity (AAPVase, nmol/mg/hr) (AP24; PW Bcl-2): 12 nmol/mg/h
AP24 Activity (AAPVase, nmol/mg/hr) (AP24; PW neo): 88 nmol/mg/h
cytotoxicity at 6 h, 100 μM [2]: 22 ± 3.4%

C=CC1=C(C)c2cc3[n-]c(cc4[n-]c(cc5nc(cc1n2)C(C)=C5C=C)c(C)c4CCC(=O)O)c(CCC(=O)O)c3C.[Fe+2] [Fe protoporphyrin IX]
% DNA Fragmentation (HL-60 Bcl-2 cells; [5]): 17%

CCC(C)N(C)C(=O)c1cc2ccccc2c(-c2ccccc2Cl)n1 (stereo not drawn) [PK11195]
Reversal of the effect of overexpression of Bcl-2 (overexpression of Bcl-2; at 20 μM (the highest non-toxic concentration)): completely ineffective

C=CC1=C(C)c2cc3[n-]c(cc4[n-]c(cc5nc(cc1n2)C(C)=C5C=C)c(C)c4CCC(=O)O)c(CCC(=O)O)c3C.[Sn+4] [Sn protoporphyrin IX]
% DNA Fragmentation (HL-60 Bcl-2 cells; [5]): 5%

CCC1=C(C)C(=O)N/C1=C\c1[nH]c(C)c(CC)c1C [W-145]
% DNA Fragmentation (HL-60 Bcl-2 cells; Exp 5, etoposide 10 μM + compound 10 μM): 28%

C=CC1=C(C)c2cc3[n-]c(cc4[n-]c(cc5nc(cc1n2)C(C)=C5C=C)c(C)c4CCC(=O)O)c(CCC(=O)O)c3C.[Zn+2] [Zn protoporphyrin IX]
% DNA Fragmentation (HL-60 Bcl-2 cells; [5]): 19%

C=CC1=C(C)/C(=C/c2[nH]c(Cc3[nH]c(/C=C4\NC(=O)C(C)=C4C=C)c(C)c3CCC(=O)O)c(CCC(=O)O)c2C)NC1=O [bilirubin]
% DNA Fragmentation (HL-60 Bcl-2 cells; [6]): 17%

C=CC1=C(C)/C(=C/C2=NC(=C\c3[nH]c(/C=C4\NC(=O)C(C)=C4C=C)c(C)c3CCC(=O)O)/C(CCC(=O)O)=C2C)NC1=O [biliverdin]
% DNA Fragmentation (HL-60 Bcl-2 cells; [5]): 20%

[Co+2].c1ccc2c(c1)-c1nc-2nc2[n-]c(nc3nc(nc4[n-]c(n1)c1ccccc41)-c1ccccc1-3)c1ccccc21 [cobalt (II) pthalocyanine]
% DNA Fragmentation (HL-60 Bcl-2 cells; [3]): 9%

CC1=C(CCC(=O)O)c2cc3nc(cc4[nH]c(cc5[nH]c(cc1n2)c(C)c5CCC(=O)O)c(CCC(=O)O)c4C)C(CCC(=O)O)=C3C [coproporphyrin]
% DNA Fragmentation (HL-60 Bcl-2 cells; [6]): 15%

Br.Br.CCC1=C(C)c2cc3[nH]c(cc4[nH]c(cc5nc(cc1n2)C(C)=C5CC)c(C)c4CC)c(C)c3CC [etioporphyrin I dihydrobromide]
% DNA Fragmentation (HL-60 Bcl-2 cells; [4]): 25%

C=CC1=C(C)c2cc3[n-]c(cc4[n-]c(cc5nc(cc1n2)C(C)=C5C=C)c(C)c4CCC(=O)O)c(CCC(=O)O)c3C.O.[Fe+2] [hematin]
% DNA Fragmentation (HL-60 Bcl-2 cells; [3]): 2%

C1=Cc2cc3ccc(cc4ccc(cc5nc(cc1n2)C=C5)[nH]4)[nH]3 [porphyin]
% DNA Fragmentation (HL-60 Bcl-2 cells; [6]): 10%

C=CC1=C(C)c2cc3[nH]c(cc4nc(cc5[nH]c(cc1n2)c(C)c5CCC(=O)O)C(CCC(=O)O)=C4C)c(C)c3C=C [protoporphyrin IX]
% DNA Fragmentation (HL-60 Bcl-2 cells; [6]): 3%

CC(=O)O[C@H]1C(=O)[C@@]2(C)[C@H]([C@H](OC(=O)c3ccccc3)[C@]3(O)C[C@H](OC(=O)[C@H](O)[C@@H](NC(=O)c4ccccc4)c4ccccc4)C(C)=C1C3(C)C)[C@]1(OC(C)=O)CO[C@@H]1C[C@@H]2O [taxol]
Reversal of the effect of overexpression of Bcl-2, compared with W-188 (overexpression of Bcl-2): inferior to W-188

deuterporphyrin IX dimethyl ester
% DNA Fragmentation (HL-60 Bcl-2 cells; [3]): 8%
